Laboratory results taken from patent EP4745135A1 (Gluetacs Therapeutics (Shanghai) Co., Ltd., priority 2023, dated 2025).

Tests used:
[1] = molecular target: T1, human Cereblon WT GST-tagged protein (Homo sapiens, UniProt Q96SW2); test: CRBN-binding affinity, HTRF (CEREBLON BINDING kit); conditions: for inhibition at 0.5 µM: read-out: Inhibition Rate at 0.5 µM (%); for inhibition at 2 µM: read-out: Inhibition Rate at 2 µM (%)
T1 construct: purchased CISBIO 64BDCRBNPEH

[2] = molecular target: T2, IKZF1 (Homo sapiens, UniProt Q13422+Q96SW2); test: Western blot, degradation of substrate protein in hPBMCs; format: cell-based
T2 construct: effects of the compounds of the present disclosure on the expression of target proteins in cells; endogenous in cells; host or cells: human PBMCs (Milecell Biotechnologies)

[3] = molecular target: T3, IKZF2 (Homo sapiens, UniProt Q96SW2+Q9UKS7); test: as above; format: cell-based
T3 construct: effects of the compounds of the present disclosure on the expression of target proteins in cells; endogenous in cells; host or cells: human PBMCs (Milecell Biotechnologies)

[4] = molecular target: T4, IKZF3 (Homo sapiens, UniProt Q96SW2+Q9UKT9); test: as above; format: cell-based
T4 construct: effects of the compounds of the present disclosure on the expression of target proteins in cells; endogenous in cells; host or cells: human PBMCs (Milecell Biotechnologies)

[5] = molecular target: T5, WEE1 (Homo sapiens, UniProt P30291+Q96SW2); test: as above; format: cell-based
T5 construct: effects of the compounds of the present disclosure on the expression of target proteins in cells; endogenous in cells; host or cells: human PBMCs (Milecell Biotechnologies)

[6] = molecular target: T6, CK1α (Homo sapiens, UniProt P48729+Q96SW2); test: as above; format: cell-based
T6 construct: effects of the compounds of the present disclosure on the expression of target proteins in cells; endogenous in cells; host or cells: human PBMCs (Milecell Biotechnologies)

[7] = tested on: GSPT1; test: as above; format: cell-based, Human
[8] = 24 hours treatment, compounds at 50 nM and 500 nM (concentration behind the class not stated)
[9] = Western blot, 24 hours of compound treatment, compounds tested at 50 nM and 500 nM (concentration for the table not stated)

T1 sequence (Q96SW2 whole entry): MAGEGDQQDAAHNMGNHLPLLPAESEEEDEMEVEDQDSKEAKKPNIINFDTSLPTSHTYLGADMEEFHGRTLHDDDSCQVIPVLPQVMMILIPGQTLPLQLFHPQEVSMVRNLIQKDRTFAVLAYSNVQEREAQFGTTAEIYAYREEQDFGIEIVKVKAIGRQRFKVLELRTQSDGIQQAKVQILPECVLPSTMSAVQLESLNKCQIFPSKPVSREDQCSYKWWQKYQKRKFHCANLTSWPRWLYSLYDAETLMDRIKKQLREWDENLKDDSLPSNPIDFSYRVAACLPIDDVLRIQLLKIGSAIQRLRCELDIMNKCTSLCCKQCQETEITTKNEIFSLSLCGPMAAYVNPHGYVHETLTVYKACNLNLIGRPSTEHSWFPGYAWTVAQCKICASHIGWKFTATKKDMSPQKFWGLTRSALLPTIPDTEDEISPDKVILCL
T3 sequence (Q9UKS7 whole entry): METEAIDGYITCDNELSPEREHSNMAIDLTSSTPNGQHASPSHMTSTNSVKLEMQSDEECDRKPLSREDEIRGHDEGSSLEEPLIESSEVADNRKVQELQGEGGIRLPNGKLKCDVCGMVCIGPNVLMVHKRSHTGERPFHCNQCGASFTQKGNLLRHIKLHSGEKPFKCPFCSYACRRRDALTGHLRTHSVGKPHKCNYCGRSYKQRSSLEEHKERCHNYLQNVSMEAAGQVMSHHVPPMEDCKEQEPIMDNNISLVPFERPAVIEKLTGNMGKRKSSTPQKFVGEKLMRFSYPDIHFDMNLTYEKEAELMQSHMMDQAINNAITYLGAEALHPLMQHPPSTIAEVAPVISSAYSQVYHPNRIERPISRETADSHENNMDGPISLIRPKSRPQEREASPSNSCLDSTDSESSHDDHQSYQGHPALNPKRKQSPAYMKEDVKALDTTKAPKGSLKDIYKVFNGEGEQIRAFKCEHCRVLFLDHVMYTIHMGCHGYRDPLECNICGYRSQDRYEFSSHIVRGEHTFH
T3 sequence (Q96SW2 whole entry): as the sequence (Q96SW2 whole entry) above
T3 sequence (Q16531 whole entry partner): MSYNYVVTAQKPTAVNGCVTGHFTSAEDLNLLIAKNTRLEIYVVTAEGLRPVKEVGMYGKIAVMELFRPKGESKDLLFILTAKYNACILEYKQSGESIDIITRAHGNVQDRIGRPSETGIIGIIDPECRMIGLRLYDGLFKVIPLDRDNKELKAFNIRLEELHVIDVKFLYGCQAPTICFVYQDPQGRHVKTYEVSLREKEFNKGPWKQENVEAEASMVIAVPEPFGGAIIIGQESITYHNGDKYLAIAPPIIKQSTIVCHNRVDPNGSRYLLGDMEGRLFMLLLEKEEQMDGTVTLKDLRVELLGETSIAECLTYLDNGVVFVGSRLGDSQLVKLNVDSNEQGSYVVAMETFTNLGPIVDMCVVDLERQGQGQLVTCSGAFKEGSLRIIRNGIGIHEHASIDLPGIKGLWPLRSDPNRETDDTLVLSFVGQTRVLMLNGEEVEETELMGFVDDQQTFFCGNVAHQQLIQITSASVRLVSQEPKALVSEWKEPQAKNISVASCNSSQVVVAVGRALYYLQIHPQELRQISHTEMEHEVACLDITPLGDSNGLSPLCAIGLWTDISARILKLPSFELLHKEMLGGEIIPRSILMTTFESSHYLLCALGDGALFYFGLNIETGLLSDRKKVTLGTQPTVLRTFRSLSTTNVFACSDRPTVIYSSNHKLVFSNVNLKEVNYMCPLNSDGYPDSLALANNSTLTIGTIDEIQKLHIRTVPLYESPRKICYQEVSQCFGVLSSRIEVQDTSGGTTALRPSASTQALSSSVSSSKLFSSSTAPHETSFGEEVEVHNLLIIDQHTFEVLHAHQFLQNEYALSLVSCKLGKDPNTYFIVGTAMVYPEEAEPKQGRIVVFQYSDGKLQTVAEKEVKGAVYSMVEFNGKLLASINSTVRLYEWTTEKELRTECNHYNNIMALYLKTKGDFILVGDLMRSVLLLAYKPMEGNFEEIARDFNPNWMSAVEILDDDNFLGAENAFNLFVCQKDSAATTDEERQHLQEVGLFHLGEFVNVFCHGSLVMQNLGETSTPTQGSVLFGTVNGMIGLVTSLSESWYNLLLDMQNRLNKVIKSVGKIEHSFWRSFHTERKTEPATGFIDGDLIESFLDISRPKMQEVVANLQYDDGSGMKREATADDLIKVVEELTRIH
T5 sequence (P30291 whole entry): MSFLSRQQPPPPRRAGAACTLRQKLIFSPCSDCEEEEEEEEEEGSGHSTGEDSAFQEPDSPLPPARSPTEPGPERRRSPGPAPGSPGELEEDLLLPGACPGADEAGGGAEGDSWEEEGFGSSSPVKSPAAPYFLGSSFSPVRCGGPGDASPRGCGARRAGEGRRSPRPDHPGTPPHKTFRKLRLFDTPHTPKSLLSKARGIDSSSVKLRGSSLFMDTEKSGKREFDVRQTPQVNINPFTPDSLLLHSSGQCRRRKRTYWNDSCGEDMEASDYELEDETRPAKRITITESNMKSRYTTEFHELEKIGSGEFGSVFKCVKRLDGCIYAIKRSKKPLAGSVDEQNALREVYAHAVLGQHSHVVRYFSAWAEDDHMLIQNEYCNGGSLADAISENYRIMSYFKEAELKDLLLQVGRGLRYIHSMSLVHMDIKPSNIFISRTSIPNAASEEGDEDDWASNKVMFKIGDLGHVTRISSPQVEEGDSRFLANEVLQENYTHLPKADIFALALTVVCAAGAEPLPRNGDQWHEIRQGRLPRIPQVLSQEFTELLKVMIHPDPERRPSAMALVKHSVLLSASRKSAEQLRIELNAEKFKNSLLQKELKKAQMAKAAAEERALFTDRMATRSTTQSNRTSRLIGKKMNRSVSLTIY
T5 sequence (Q96SW2 whole entry): as the sequence (Q96SW2 whole entry) above
T5 sequence (Q16531 whole entry partner): as the sequence (Q16531 whole entry partner) above
T2 sequence (Q13422 whole entry): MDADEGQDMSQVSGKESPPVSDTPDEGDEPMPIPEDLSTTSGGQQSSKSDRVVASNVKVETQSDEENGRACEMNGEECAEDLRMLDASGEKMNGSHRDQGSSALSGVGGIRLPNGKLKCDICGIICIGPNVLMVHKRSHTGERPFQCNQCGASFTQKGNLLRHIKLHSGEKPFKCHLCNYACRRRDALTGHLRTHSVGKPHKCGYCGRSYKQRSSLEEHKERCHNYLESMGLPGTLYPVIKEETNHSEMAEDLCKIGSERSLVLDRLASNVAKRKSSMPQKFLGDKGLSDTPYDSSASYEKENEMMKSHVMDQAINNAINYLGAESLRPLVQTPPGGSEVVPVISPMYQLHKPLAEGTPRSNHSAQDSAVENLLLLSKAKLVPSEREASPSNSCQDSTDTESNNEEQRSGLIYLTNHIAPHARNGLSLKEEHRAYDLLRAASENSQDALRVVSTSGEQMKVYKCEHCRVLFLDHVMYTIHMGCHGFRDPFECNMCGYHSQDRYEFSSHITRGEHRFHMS
T2 sequence (Q96SW2 whole entry): as the sequence (Q96SW2 whole entry) above
T2 sequence (Q16531 whole entry partner): as the sequence (Q16531 whole entry partner) above
T6 sequence (P48729 whole entry): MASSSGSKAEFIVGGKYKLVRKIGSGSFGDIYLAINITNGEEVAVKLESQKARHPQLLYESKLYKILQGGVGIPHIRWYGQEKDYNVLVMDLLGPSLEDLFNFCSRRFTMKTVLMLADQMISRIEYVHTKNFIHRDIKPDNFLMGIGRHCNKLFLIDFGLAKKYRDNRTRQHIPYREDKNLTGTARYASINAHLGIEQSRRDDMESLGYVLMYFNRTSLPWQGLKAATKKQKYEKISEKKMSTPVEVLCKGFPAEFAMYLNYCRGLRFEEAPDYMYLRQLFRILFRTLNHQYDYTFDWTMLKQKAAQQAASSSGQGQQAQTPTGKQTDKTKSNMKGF
T6 sequence (Q96SW2 whole entry): as the sequence (Q96SW2 whole entry) above
T6 sequence (Q16531 whole entry partner): as the sequence (Q16531 whole entry partner) above
T4 sequence (Q9UKT9 whole entry): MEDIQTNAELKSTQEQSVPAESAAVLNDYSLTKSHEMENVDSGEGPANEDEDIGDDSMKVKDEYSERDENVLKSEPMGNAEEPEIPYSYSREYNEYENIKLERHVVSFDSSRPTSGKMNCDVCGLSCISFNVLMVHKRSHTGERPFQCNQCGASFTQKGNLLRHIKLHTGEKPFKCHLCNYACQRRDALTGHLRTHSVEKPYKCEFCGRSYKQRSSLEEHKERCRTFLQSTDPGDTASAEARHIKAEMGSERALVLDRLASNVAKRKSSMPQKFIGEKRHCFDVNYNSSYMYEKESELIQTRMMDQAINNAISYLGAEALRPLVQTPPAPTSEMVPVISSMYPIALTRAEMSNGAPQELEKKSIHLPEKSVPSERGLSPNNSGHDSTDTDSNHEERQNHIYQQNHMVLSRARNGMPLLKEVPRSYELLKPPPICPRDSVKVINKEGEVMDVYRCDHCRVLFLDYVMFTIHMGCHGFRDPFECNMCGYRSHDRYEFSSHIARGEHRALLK
T4 sequence (Q96SW2 whole entry): as the sequence (Q96SW2 whole entry) above
T4 sequence (Q16531 whole entry partner): as the sequence (Q16531 whole entry partner) above

SMILES | inhibition at 0.5 µM [1] [%] | inhibition at 2 µM [1] [%] | IKZF 1 substrate protein remaining % [2, 8] | IKZF2 substrate protein remaining % [3, 8] | IKZF3 substrate protein remaining % [4, 8] | Wee1 substrate protein remaining % [5, 8] | CK1α substrate protein remaining % [6, 8] | GSPT1 substrate protein remaining % [7, 8] | IKZF 1 substrate protein remaining % [2, 9] | IKZF2 substrate protein remaining % [3, 9] | IKZF3 substrate protein remaining % [4, 9] | Wee1 substrate protein remaining % [5, 9] | CK1α substrate protein remaining % [6, 9] | GSPT1 substrate protein remaining % [7, 9]
O=C1CCC(N2Cc3c(CN4CCC(c5ccoc5)CC4)cccc3C2=S)C(=O)N1 (stereo not shown) [GT-08317, 3-(4-((4-(furan-3-yl)piperidin-1-yl)methyl)-1-thioxoisoindolin-2-yl)piperidine-2,6-dione] | 40 to 53 | 60 to 80 | B (80%< substrate protein remaining %≤ 100%) | A (0% ≤ substrate protein remaining % ≤ 80%) | A (0% ≤ substrate protein remaining % ≤ 80%) | A (0% ≤ substrate protein remaining % ≤ 80%) | B (80%< substrate protein remaining %≤ 100%) | B (80%< substrate protein remaining %≤ 100%) | – | – | – | – | – | –
O=C1CCC(N2Cc3c(CN4CCN(c5cc(Cl)nnc5Cl)CC4)cccc3C2=S)C(=O)N1 (stereo not shown) [GT-08807, 3-(4-((4-(3,6-dichloropyridazin-4-yl)piperazin-1-yl)methyl)-1-thioxoisoindolin-2-yl)piperidine-2,6-dione] | 60 to 80 | 80 to 100 | – | – | – | – | – | – | B (80%< substrate protein remaining %≤ 100%) | B (80%< substrate protein remaining %≤ 100%) | B (80%< substrate protein remaining %≤ 100%) | A (0% ≤ substrate protein remaining % ≤ 80%) | B (80%< substrate protein remaining %≤ 100%) | B (80%< substrate protein remaining %≤ 100%)
O=C1CCC(N2Cc3c(CN4CCC(N5CCCc6cc(F)ccc65)CC4)cccc3C2=S)C(=O)N1 (stereo not shown) [GT-08851, 3-(4-((4-(6-fluoro-3,4-dihydroquinolin-1(2H)-yl)piperidin-1-yl)methyl)-1-thioxoisoindolin-2-yl)piperidine-2,6-dione] | 40 to 53 | 60 to 80 | – | – | – | – | – | – | B (80%< substrate protein remaining %≤ 100%) | B (80%< substrate protein remaining %≤ 100%) | B (80%< substrate protein remaining %≤ 100%) | A (0% ≤ substrate protein remaining % ≤ 80%) | B (80%< substrate protein remaining %≤ 100%) | A (0% ≤ substrate protein remaining % ≤ 80%)

Now from value to compound, other results behind:

inhibition at 0.5 µM [1] [%] | inhibition at 2 µM [1] [%] | SMILES | IKZF 1 substrate protein remaining % [2, 8] | IKZF2 substrate protein remaining % [3, 8] | IKZF3 substrate protein remaining % [4, 8] | Wee1 substrate protein remaining % [5, 8] | CK1α substrate protein remaining % [6, 8] | GSPT1 substrate protein remaining % [7, 8] | IKZF 1 substrate protein remaining % [2, 9] | IKZF2 substrate protein remaining % [3, 9] | IKZF3 substrate protein remaining % [4, 9] | Wee1 substrate protein remaining % [5, 9] | CK1α substrate protein remaining % [6, 9] | GSPT1 substrate protein remaining % [7, 9]
53 to 60 | 80 to 100 | Cc1sc2ncnc(N3CCCN(Cc4cccc5c4CN(C4CCC(=O)NC4=O)C5=S)CC3)c2c1C (stereo not shown) [GT-08917, 3-(4-((4-(5,6-dimethylthieno[2,3-d]pyrimidin-4-yl)-1,4-diazepan-1-yl)methyl)-1-thioxoisoindolin-2-yl)piperidine-2,6-dione] | B (80%< substrate protein remaining %≤ 100%) | B (80%< substrate protein remaining %≤ 100%) | B (80%< substrate protein remaining %≤ 100%) | A (0% ≤ substrate protein remaining % ≤ 80%) | B (80%< substrate protein remaining %≤ 100%) | A (0% ≤ substrate protein remaining % ≤ 80%) | – | – | – | – | – | –
60 to 80 | 80 to 100 | O=C1CCC(N2Cc3c(CN4CCN(c5ncccc5Cl)CC4)cccc3C2=S)C(=O)N1 (stereo not shown) [GT-08696, 3-(4-((4-(3-chloropyridin-2-yl)piperazin-1-yl)methyl)-1-thioxoisoindolin-2-yl)piperidine-2,6-dione] | – | – | – | – | – | – | B (80%< substrate protein remaining %≤ 100%) | B (80%< substrate protein remaining %≤ 100%) | B (80%< substrate protein remaining %≤ 100%) | A (0% ≤ substrate protein remaining % ≤ 80%) | B (80%< substrate protein remaining %≤ 100%) | B (80%< substrate protein remaining %≤ 100%)
